Assay results as given in paper PMC7022378, “Structural Analyses on the Deamidation of N-Terminal Asn in the Human N-Degron Pathway” (Biomolecules, 2020).
Numbering of substitutions follows the chain as printed.

Columns and labels:
NTAN1 (wild-type) = biological target: T1, NTAN1 (wild-type) (Homo sapiens, UniProt Q96AB6); test: In vitro deamidation assay quantified by LC-MS, wild-type NTAN1; format: biochemical; details: 200 mM NaCl, 10 mM HEPES-NaOH (pH 7.0); for Deamidation with 0.16 μM NTAN1: 0.16 μM NTAN1, 37 °C; for Deamidation activity on NXAAR peptides: 100 μM peptide, 37 °C, 1-20 min, three independent experiments
T1 construct: The gene for full-length NTAN1 was cloned into pET-21a(+); made in house; host or cells: E. coli Rosetta 2(DE3)
T1 sequence (Q96AB6 1-310): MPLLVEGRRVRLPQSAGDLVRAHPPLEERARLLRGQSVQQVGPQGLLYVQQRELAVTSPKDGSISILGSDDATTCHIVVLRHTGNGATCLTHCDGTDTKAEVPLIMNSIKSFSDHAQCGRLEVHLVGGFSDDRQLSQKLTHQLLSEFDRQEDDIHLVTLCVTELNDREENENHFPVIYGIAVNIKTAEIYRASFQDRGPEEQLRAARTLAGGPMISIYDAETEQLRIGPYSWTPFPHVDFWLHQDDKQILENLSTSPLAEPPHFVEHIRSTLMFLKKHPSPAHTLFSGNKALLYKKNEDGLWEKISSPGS
Description: We synthesized codon-optimized NTAN1 gene of which sequence information was provided by Georgiou et al. for protein expression in Escherichia coli. The gene for full-length NTAN1 was cloned into pET-21a(+) (Novagen, Darmstadt, Germany) between Nde1 and Xho1 restriction sites to have C-terminal hexahistidine tag. NTAN1 was overexpressed in the Rosetta 2(DE3), E. coli strain (Novagen, Darmstadt, Germany). The transformed cells were grown in Luria-Bertani media containing ampicillin at 37 °C until the optical density at 600 nm reached 0.5 and protein expression was induced by 0.5 mM isopropyl β-D-1-thiogalactopyranoside. The cells were shake-incubated for additional for 16 h at 18 °C and harvested by centrifugation at 6000 × g for 10 min (Figure S1). The harvested cells were resuspended in a buffer containing 500 mM NaCl, 20 mM Tris-HCl (pH 7.5), 35 mM imidazole, and 1 mM phenylmethylsulfonyl fluoride and subsequently lysed by sonication. Lysed cells were centrifuged at 35,000 × g for 1 h. The resultant supernatant was filtered with 0.45 μm filter device (Sartorius, Göttingen, Germany) and loaded onto a 5-mL HiTrap Chelating HP column (GE Healthcare, Chicago, IL, USA) which had been pre-charged with Ni^2+ and equilibrated with a buffer containing 500 mM NaCl, 20 mM Tris-HCl (pH 7.5), and 35 mM imidazole. After nonspecifically bound proteins were eluted, the retained proteins were eluted by addition of an increasing gradient of a buffer containing 500 mM NaCl, 20 mM Tris-HCl (pH 7.5), and 1 M imidazole. The proteins were loaded onto a HiPrep Desalting 26/10 column (GE Healthcare, Chicago, IL, USA) and eluted with a buffer containing 50 mM NaCl and 20 mM Tris-HCl (pH 7.5) The eluates were loaded onto a HiTrap 5-mL Q HP column (GE Healthcare, Chicago, IL, USA) which had been equilibrated with a buffer containing 50 mM NaCl and 20 mM Tris-HCl (pH 7.5). After nonspecifically bound proteins were eluted, the retained proteins were eluted with addition of increasing gradient of a buffer containing 1 M NaCl and 20 mM Tris-HCl (pH 7.5). Finally, the proteins were concentrated, loaded onto a HiLoad 16/600 Superdex 200 pg column (GE Healthcare, Chicago, IL, USA), and eluted with a buffer containing 200 mM NaCl and 10 mM HEPES-NaOH (pH 7.0). Purity of the protein fractions was checked by sodium dodecyl sulfate-polyacrylamide gel electrophoresis after each purification step.
Peptides with Nt-Asn which mimic potential substrates of NTAN1 were synthesized: NRA, NRAA, NRAAA, NRQVA, NRQVAA, NRQVAAA, NFAAR, NLAAR, NRAAR, NAAAR, NNAAR, NPAAR, NGAAR, and NDAAR. Non-Nt-Asn peptides, QRAAA and VRAAA, were also synthesized. NTAN1 (at concentrations of 0.5 μM, 0.16 μM, or 0.04 μM) and the peptides (at a concentration of 100 μM) were mixed and incubated at 37 °C in a buffer containing 200 mM NaCl and 10 mM HEPES-NaOH (pH 7.0). The reactants sampled at various incubation time points (of 1, 2, 5, 10, and 20 min) were heat-inactivated at 95 °C for 10 min to stop further reaction. Subsequently, the samples were centrifuged at 20,000 × g and diluted 1/50 times with double-deionized water (DW) for liquid chromatography-mass spectrometry (LC-MS) analysis. The deamidation coefficient of peptides catalyzed by NTAN1 was assessed by the slope of exponential curve drawn from the concentration of the substrate over incubation time.
The peptides were quantified by an LC-MS system (1260 Infinity/6430 Triple Quad, Agilent Technologies) equipped with a binary pump (G1312B), a thermostated column compartment (G1316C), a thermostat (G1330B), and an autosampler (G1367E). Chromatographic separation was carried out by injecting an aliquot (2 µL) of analytical sample into a Kinetex C18 column (2.6 μm, 100 Å, 100 × 4.6 mm; Phenomenex, Torrance, CA, USA) with a C18 guard column (4 × 2.0 mm; Phenomenex, Torrance, CA, USA). The mobile phase consisted of acetonitrile and DW (30:70, v/v) with 0.2% (v/v) formic acid. […]

[1] = biological target: T2, NTAN1 S254A mutant (human) (UniProt Q96AB6)
T2 sequence: T1 sequence (Q96AB6 1-310) with S254A

[2] = biological target: T3, N-terminal asparagine amidohydrolase 1 (NTAN1) C75S mutant (human, UniProt Q96AB6 1-310, C75S); test: SPR; NTAN1 C75S amine-coupled to a CM5 chip (3000 RU), Biacore T200; peptides at 1.95-62.50 μM injected for 120 s, 30 μL/min; 150 mM NaCl, 10 mM HEPES-NaOH pH 7.2, 0.1 mM TCEP, 0.001% polysorbate 20; 1:1 Langmuir model; details: both partners purified
T3 construct: N-terminal asparagine amidohydrolase 1 (NTAN1), human, full length, 310 residues; codon-optimized synthetic gene in pET-21a(+); catalytic Cys75 changed to Ser; C75S is not in the list of mutants in section 2.2; No step that cleaves the tag is described; source: E. coli Rosetta 2(DE3), purified as for NTAN1 (Ni2+ chelating, Q anion exchange, Superdex 200)
T3 sequence (looked up): T1 sequence (Q96AB6 1-310) with C75S

[3] = biological target: T3, N-terminal asparagine amidohydrolase 1 …; test: crystal structure; crystals of NTAN1 C75S soaked in reservoir solution with 10 mM synthetic peptide for 16 hr; two molecules in the asymmetric unit; details: both partners purified
[4] = 0.5 μM NTAN1 (Figure 2d; NNAAR also at 0.04 μM, Figure 2c)

NRQVA [synthesized modified Nt-Asn peptide, model substrate of NTAN1]
Deamidation with 0.16 μM NTAN1 (NTAN1 (wild-type)): deamidated too rapidly

NDAAR [NXAAR substrate peptide, second-position Asp]
Deamidation activity on NXAAR peptides (NTAN1 (wild-type); [4]): low deamidation activities

NLAAR [NXAAR substrate pentapeptide, second-position Leu]
Deamidation activity on NXAAR peptides (NTAN1 (wild-type); 0.04 μM NTAN1 (Figure 2c)): most efficiently deamidated

NRQVAAA [synthesized modified Nt-Asn peptide, model substrate of NTAN1]
Deamidation with 0.16 μM NTAN1 (NTAN1 (wild-type)): deamidated too rapidly

NFAAR [NXAAR substrate pentapeptide, second-position Phe]
Deamidation activity on NXAAR peptides (NTAN1 (wild-type); 0.04 μM NTAN1 (Figure 2c)): most efficiently deamidated

NRAAR [NXAAR substrate peptide, second-position Arg]
Deamidation activity on NXAAR peptides (NTAN1 (wild-type); 0.04 μM NTAN1 (Figure 2c)): moderate deamidation activity

NNAAR [NXAAR substrate peptide, second-position Asn]
Deamidation activity on NXAAR peptides (NTAN1 (wild-type); [4]): low deamidation activities

NGAAR [NXAAR substrate peptide, second-position Gly]
Deamidation activity on NXAAR peptides (NTAN1 (wild-type); [4]): low deamidation activities

NRQVAA [synthesized modified Nt-Asn peptide, model substrate of NTAN1]
Deamidation with 0.16 μM NTAN1 (NTAN1 (wild-type)): deamidated too rapidly

NPAAR [NXAAR substrate peptide, second-position Pro]
Deamidation activity on NXAAR peptides (NTAN1 (wild-type); [4]): low deamidation activities

NRAAA [NRAAA peptide]
in vitro deamidation of the NRAAA peptide, LC-MS, deamidation rate against wild-type NTAN1 (fold lower than wild type) [1]: 3

B1: NLAAR peptide (peptide)
peptide: NLAAR
notes: model substrate peptide with N-terminal Asn; also called NLAAR pentapeptide; source: synthetic peptide
Kd [2]: 26.8 nM

B2: NAAAR peptide (peptide)
peptide: NAAAR
notes: model substrate peptide with N-terminal Asn; source: synthetic peptide
Kd [2]: 4670 nM

B3: NFAAR peptide (peptide)
peptide: NFAAR
notes: model substrate peptide with N-terminal Asn; also called NFAAR pentapeptide; source: synthetic peptide
binding result [3]: binds
